Data as given in ChEMBL document CHEMBL3875145, “Highly potent anti-leishmanial derivatives of hederagenin, a triperpenoid from Sapindus saponaria L” (Eur J Med Chem, 2016).
pIC50: −log10 of the molar value.

Key:
[1] = Cytotoxicity against human HepG2 cells assessed as decrease in cell viability after 48 hrs by MTT assay; assay type: toxicity, cell-based; conditions: read-out: LD50
Leishmania infantum [2] = assay: Antiparasitic activity against Leishmania infantum MHOM/BR/70/BH46 promastigotes infected in dog DH82 cells at 1000 uM after 48 hrs by ELISA method; assay type: functional; conditions: MHOM/BR/70/BH46, DH82, 48 h
[3] = Cytotoxicity against dog DH82 cells assessed as decrease in cell viability after 48 hrs by MTT assay; assay type: toxicity, cell-based, Canis lupus familiaris; conditions: read-out: LD50
[4] = Cytotoxicity against African green monkey BGM cells assessed as decrease in cell viability after 48 hrs by MTT assay; assay type: toxicity, cell-based; conditions: chlorocebus aethiops, read-out: LD50
[5] = Selectivity index, ratio of LD50 for dog DH82 cells to IC50 for Leishmania infantum MHOM/BR/70/BH46 promastigotes infected in dog DH82 cells; assay type: toxicity, cell-based; conditions: read-out: Ratio LD50/IC50
[6] = Selectivity index, ratio of LD50 for human HepG2 cells to IC50 for Leishmania infantum MHOM/BR/70/BH46 promastigotes infected in dog DH82 cells; assay type: toxicity, cell-based; conditions: read-out: Ratio LD50/IC50
Leishmania infantum [7] = assay: Antiparasitic activity against Leishmania infantum MHOM/BR/70/BH46 promastigotes infected in dog DH82 cells after 48 hrs by ELISA method; assay type: functional, cell-based; conditions: MHOM/BR/70/BH46, DH82, 48 h
[8] = Selectivity index, ratio of LD50 for African green monkey BGM cells to IC50 for Leishmania infantum MHOM/BR/70/BH46 promastigotes infected in dog DH82 cells; assay type: toxicity, cell-based; conditions: read-out: Ratio LD50/IC50

| Compound | CC50 at 48 h [1] [µM] | inhibition at 1000 µM (Leishmania infantum [2]) [%] | CC50 at 48 h [3] [µM] | CC50 at 48 h [4] [µM] | selectivity ratio [5] | selectivity ratio [6] | pIC50 (Leishmania infantum [7]) | selectivity ratio [8] |
| --- | --- | --- | --- | --- | --- | --- | --- | --- |
| CC1(C)CC[C@]2(C(=O)OCc3cn(Cc4cccc(Br)c4)nn3)CC[C@]3(C)C(=CC[C@@H]4[C@@]5(C)CC[C@H](O)[C@@](C)(CO)[C@@H]5CC[C@]43C)[C@@H]2C1 | 19 | 70.5 | 21 | 78 | 0.5 | 0.5 | 4.42 | 2 |
| CC1(C)CC[C@]2(C(=O)OCc3cn(Cc4ccc(F)cc4F)nn3)CC[C@]3(C)C(=CC[C@@H]4[C@@]5(C)CC[C@H](O)[C@@](C)(CO)[C@@H]5CC[C@]43C)[C@@H]2C1 | > 1000 | 87.7 | 66 | 158 | 6 | > 31.2 | 4.96 | 4.9 |
| CC1(C)CC[C@]2(C(=O)OCc3ccc(Br)cc3)CC[C@]3(C)C(=CC[C@@H]4[C@@]5(C)CC[C@H](O)[C@@](C)(CO)[C@@H]5CC[C@]43C)[C@@H]2C1 | 260 | 64.5 | 83 | 116 | 6.9 | 21.6 | 4.92 | 10 |
| CC1(C)CC[C@]2(C(=O)OCc3cccc([N+](=O)[O-])c3)CC[C@]3(C)C(=CC[C@@H]4[C@@]5(C)CC[C@H](O)[C@@](C)(CO)[C@@H]5CC[C@]43C)[C@@H]2C1 | 70 | 60.5 | 63 | 314 | 6.4 | 5.2 | 5.01 | 32 |
| COC(=O)CNC(=O)[C@]12CCC(C)(C)C[C@H]1C1=CC[C@@H]3[C@@]4(C)CC[C@H](O)[C@@](C)(CO)[C@@H]4CC[C@@]3(C)[C@]1(C)CC2 | 60.6 | 79.5 | 32.5 | 20 | 1.8 | 3.5 | 4.74 | 1 |
| CC1(C)CC[C@]2(C(=O)OCc3c(Cl)cccc3Cl)CC[C@]3(C)C(=CC[C@@H]4[C@@]5(C)CC[C@H](O)[C@@](C)(CO)[C@@H]5CC[C@]43C)[C@@H]2C1 | – | 53 | 202 | – | 0.6 | – | 3.51 | – |
| CC1(C)CC[C@]2(C(=O)O)CC[C@]3(C)C(=CC[C@@H]4[C@@]5(C)CC[C@H](O)[C@@](C)(CO)[C@@H]5CC[C@]43C)[C@@H]2C1 [HEDERAGENIN] | < 1000 | 55.5 | < 1000 | 57 | 10 | 16.2 | 4.21 | 0.9 |
| CC1(C)CC[C@]2(C(=O)OCc3cn(Cc4ccccc4[N+](=O)[O-])nn3)CC[C@]3(C)C(=CC[C@@H]4[C@@]5(C)CC[C@H](O)[C@@](C)(CO)[C@@H]5CC[C@]43C)[C@@H]2C1 | 57 | 51 | 212 | 15 | 6.6 | 5.1 | 4.49 | 1.3 |
| CC1(C)CC[C@]2(C(=O)NCc3cn(Cc4ccccc4[N+](=O)[O-])nn3)CC[C@]3(C)C(=CC[C@@H]4[C@@]5(C)CC[C@H](O)[C@@](C)(CO)[C@@H]5CC[C@]43C)[C@@H]2C1 | > 1000 | 93 | 45 | 111 | 22.5 | > 500 | 5.70 | 55.5 |
| CC1(C)CC[C@]2(C(=O)NCc3cn(Cc4ccc(Cl)cc4)nn3)CC[C@]3(C)C(=CC[C@@H]4[C@@]5(C)CC[C@H](O)[C@@](C)(CO)[C@@H]5CC[C@]43C)[C@@H]2C1 | 2.5 | 85.4 | 16 | 50 | 2.6 | 0.4 | 5.22 | 8.3 |
| COc1cc(COC(=O)[C@]23CCC(C)(C)C[C@H]2C2=CC[C@@H]4[C@@]5(C)CC[C@H](O)[C@@](C)(CO)[C@@H]5CC[C@@]4(C)[C@]2(C)CC3)cc(OC)c1 | – | 89 | – | – | – | – | 3.96 | – |
| CC1(C)CC[C@]2(C(=O)OCc3ccccc3Cl)CC[C@]3(C)C(=CC[C@@H]4[C@@]5(C)CC[C@H](O)[C@@](C)(CO)[C@@H]5CC[C@]43C)[C@@H]2C1 | – | 15.8 | – | – | – | – | – | – |
| CC1(C)CC[C@]2(C(=O)NCc3cn(Cc4cccc(Cl)c4)nn3)CC[C@]3(C)C(=CC[C@@H]4[C@@]5(C)CC[C@H](O)[C@@](C)(CO)[C@@H]5CC[C@]43C)[C@@H]2C1 | – | 31.1 | – | – | – | – | – | – |
